# Test results taken from US8163788B2, “Low-molecular inhibitors of cytohesin-family guanine nucleotide exchange factors” (Rheinische Friedrich-Wilhelms Universitat Bonn, priority 2004, dated 2012).
# Like-named read-outs stand apart in the source and are kept apart here.
# Legend:
# [1] = test system: sec7-domain of cytohesin-1; test: GDP/GTP exchange on NΔ17-ARF1 catalysed by sec7-domain (tryptophan fluorescence); assay type: biochemical; settings: conclusion in words from Table 1
# Protocol: (§1) The IC50 value for the inhibition of the exchange activity of the sec7-domains of various guanine nucleotide exchange factors of the compounds (9), (10), (11), (12), (14) and (19) was determined.
# (§2) For this purpose, the sec7-domains of cytohesin-1, cytohesin-2 and Gea2 as well as the NΔ 17-ARF 1, a mutant of the ARF protein, recombinantly expressed in E. coli BL21DE3, were purified by means of a standard method and used as catalysts for the exchange from GDP to GTP in GTPases of the family of the ADP ribosylation factors. The exchange from GDP to GTP induces a conformation change of the ribosylation factor, as a result of which the fluorescence of a tryptophan radical of the protein is increased.
# (§3) In 50 mM of HEPES, pH 7.4, 120 mM of KCl, 1 mM of MgCl2, 45 μM of GTP S, the compounds (9), (10), (11), (12), (14) and (19), each in concentrations of 1 μM to 30 μM, were added to 1 μM NΔ 17-ARF1 and, in each case, 1 μM of the purified sec7-domain of cytohesin-1, cytohesin-2 and Gea2, and the fluorescence was measured in a Varioskan, Thermo LifeSciences Inc., at the following wavelengths: excitation: 275 nm, emission 340 nm.
# (§4) The IC50 value can be determined by plotting the initial rise of the fluorescence signal against the added concentrations of the compounds. The IC50 value corresponds to the concentration of the compounds at which the activity of the protein is reduced to half. […] Brefeldin A, a specific inhibitor of the […] Gea2 served as the control.
# [2] = target: T1, sec7-domain of cytohesin-2 (Homo sapiens, UniProt Q99418); test: as above; assay type: biochemical; settings: 1 μM NΔ17-ARF1, 1 μM sec7-domain, compounds 1 μM to 30 μM
# T1 construct: 1 μM of the purified sec7-domain of cytohesin-1, cytohesin-2 and Gea2; made in house; host or cells: E. coli BL21DE3
# T1 sequence (Q99418 72-201 limits assumed): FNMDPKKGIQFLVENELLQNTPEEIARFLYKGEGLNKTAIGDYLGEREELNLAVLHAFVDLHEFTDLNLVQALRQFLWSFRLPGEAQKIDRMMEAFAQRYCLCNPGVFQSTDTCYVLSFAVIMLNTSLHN
# Protocol: as §1, §2, §3, §4
# [3] = target: T2, sec7-domain of cytohesin-1 (Homo sapiens, UniProt Q15438); test: as above; assay type: biochemical; settings: 1 μM NΔ17-ARF1, 1 μM sec7-domain, compounds 1 μM to 30 μM
# T2 construct: central sec7-domain, corresponding to the amino acids 62-244 in cytohesin-1; made in house; host or cells: E. coli BL21DE3
# T2 sequence (Q15438 62-244): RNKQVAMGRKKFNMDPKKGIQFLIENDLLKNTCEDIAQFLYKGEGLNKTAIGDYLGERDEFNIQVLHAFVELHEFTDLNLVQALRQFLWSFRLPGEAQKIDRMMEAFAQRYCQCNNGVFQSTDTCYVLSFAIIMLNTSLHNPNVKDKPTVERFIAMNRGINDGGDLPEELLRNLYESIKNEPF
# Protocol: as §1, §2, §3, §4
# sec7-domain of Gea2 = target: T3, sec7-domain of Gea2 (Saccharomyces cerevisiae, UniProt P39993); test: as above; assay type: biochemical
# T3 construct: 1 μM of the purified sec7-domain of cytohesin-1, cytohesin-2 and Gea2; made in house; host or cells: E. coli BL21DE3
# T3 sequence (P39993 570-714): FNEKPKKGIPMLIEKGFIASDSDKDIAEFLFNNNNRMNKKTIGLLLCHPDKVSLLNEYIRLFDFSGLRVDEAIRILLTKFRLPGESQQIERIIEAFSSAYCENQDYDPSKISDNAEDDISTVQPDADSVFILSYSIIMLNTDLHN
# Protocol: as §1, §2, §3, §4
# cytohesin-2 = test: luciferase assay in HeLa-cells (serum response element activation, MAPK path via cytohesin-2); assay type: cell-based; settings: compounds 1 μM to 50 μM, read-out: IC50 (luciferase signal)
# Protocol: The IC50 value was determined in comparison to the LC50 value in a luciferase assay in HeLa-cells, corresponding to the test conditions described in Theis, M. G. et al., Proc Natl Acad Sci USA, 101, 11221-26 (2004). The stimulation of receptor tyrosine kinases by means of growth factors contained in fetal calf serum activates the MAPK path via cytohesin-2 and results in an activation of the serum response element. This activation manifests itself in the quantity of luciferase produced in the cells.
# Compounds (9), (10), (11), (12), (14) and (19) were each added in concentrations of 1 μM to 50 μM to 6.5×10^4 HeLa-cells.
# The IC50 value was determined from the plotting of the concentration of the compound against the intensity of the luciferase signal.
# [4] = MTT assay (LC50) in HeLa-cells; assay type: cell-based; settings: human, after 24 hours
# Protocol: The LC50 values were determined by an MTT assay according to a standard method.
# The LC50 value describes the lethal concentration at which […] died within 24 hours after a one-time administration.
# [5] = test system: human peripheral blood cells (PBL); test: adhesion of human peripheral blood cells (PBL) to ICAM-1 after stimulation with OKT3 or PMA; assay type: cell-based; settings: stimulation with OKT3; FIG. 2
# Description: Human peripheral blood cells (PBL) were stimulated with agonists that activate a beta-2 integrin-dependent adhesion. In these primary human lymphocytes, the beta-2 integrin-dependent adhesion can be activated by cytohesins at the specific ligands ICAM-1.
# The agonists employed were the monoclonal antibody OKT3 (hybridome of ATCC, mAb OKT3 purified on protein A, according to standard methods from Current Protocols in Immunology, 5th Ed., Coligan et al., Edts, Wiley 2004) against the CD3 complex, a T-cell receptor and phorbolester (PMA), which non-physiologically activates intracellular signal cascades in human PBL including integrin-dependent adhesion while circumventing cytohesins.
# Cells from human blood were isolated according to standard methods (Current Protocols in Immunology, 5th Ed., 2004, Coligan et al., Edts, Wiley). Cell culture dishes coated with ICAM-1 were produced by means of recombinant ICAM-1-Fc fusion protein (Kolanus, W. et al., Cell 86, 233-42 (1996), Geiger, C. et al., EMBO J., 19, 2525-2536 (2000)). 300,000 human peripheral blood cells (PBL) were stimulated for 30 minutes with 2 μg/ml of OKT3 or 40 ng/ml of phorbolester (PMA) in Hank's BSS, (Gibco; composition (g/l): CaCl2x2H2O (0.185), KCl (0.4), KH2PO4 (0.06), MgCl2x6H2O (0.1), MgSO4x7H2O (0.1), NaCl (8.0), NaHCO3 (0.35), Na2HPO4 (0.048), D-glucose (1.0)), and placed for one hour in Hank's BSS onto the ICAM-1 coated cell culture dishes, whereby the agonists were not removed. Non-bound cells were removed by washing with Hank's BSS. The percentage of bound cells was determined by counting under a microscope using a standard counting grid.
Compound,specificity of inhibition of sec7-domains (cytohesins vis-à-vis Gea2) [1],IC50 [2] [µM],IC50 [3] [µM],"IC50 (sec7-domain of Gea2; 1 μM NΔ17-ARF1, 1 μM sec7-domain, compounds 1 μM to 30 μM, read-out: IC50 Gea2-sec7) [µM]",IC50 (sec7-domain of Gea2) [µM],IC50 (cytohesin-2) [µM],CC50 at 24 h [4] [µM],effect on OKT3-mediated adhesion in primary human lymphocytes [5]
"C[C@H]1CCC/C=C/[C@@H]2C[C@H](O)C[C@H]2[C@H](O)/C=C/C(=O)O1 [Brefeldin A, reference compound]",specific inhibition of the sec7-domain of Gea2,> 150,> 150,23 ± 1,,,,
CCOc1nc(-c2cccc(F)c2)n(-c2ccc(NC(=O)Cc3cccs3)cc2)n1 [Compound 10],specific inhibition of the sec7-domains of the cytohesins,16.1 ± 0.9,12.6 ± 0.3,,67 ± 5,23 ± 5,> 150,
CCOc1nc(-c2ccccc2F)n(-c2ccc(NC(=O)CSc3ccccc3)cc2)n1 [Compound 11],specific inhibition of the sec7-domains of the cytohesins,12.4 ± 0.3,8.8 ± 0.3,,42 ± 4,5 ± 1.5,142 ± 12,
CN(c1cc(Cl)nc(SCc2ccc(C(=O)NCc3ccco3)cc2)n1)C1CCCCC1 [Compound 12],specific inhibition of the sec7-domains of the cytohesins,19.5 ± 0.3,8 ± 0.3,,22 ± 2,5 ± 1.5,> 150,
O=C(CN(CC1CCCO1)C(=O)Cc1cccs1)N(Cc1ccc(F)cc1)Cc1ccco1 (stereo not shown) [Compound 14],specific inhibition of the sec7-domains of the cytohesins,19.3 ± 0.3,14.8 ± 0.3,,,3 ± 1,,
O=C(O)[C@H]1CSCN1C(=O)Cc1cccs1 [Compound 19],specific inhibition of the sec7-domains of the cytohesins,20 ± 0.6,15 ± 0.3,,,3.5 ± 0.5,> 150,
"CC(C)(C)c1ccc(S(=O)(=O)N(Cc2ccc(OS(C)(=O)=O)cc2)CC2CCCO2)cc1 (stereo not shown) [Control 1, reference compound]",,,,,,> 50,> 150,
"CCOCCCN(Cc1nc(C(=O)NCCCOCO)co1)C(=O)c1ccccc1Br [Control 2, reference compound]",,,,,,,,no effect
